Test results taken from patent publication US11382328B2, “Rapid drug discovery methods for pathogen inactivation” (priority 2019, dated 2022).

System: E. coli strain W3110
Assay: Synergy assays: Biolog chemical sensitivity panels with Group IB metal, coefficient of drug interaction (CDI) from relative growth
Assay type: cell-based
Conditions: for CDI (coefficient of drug interaction), copper mixed with biocide: Copper (mM) section; for CDI (coefficient of drug interaction), gold + biocide: Gold (μM)
[1] = 1st of 3 copper concentrations (value not shown), 1st of four biocide concentrations
[2] = 1st of 3 copper concentrations (value not shown), 2nd of four biocide concentrations
[3] = 1st of 3 copper concentrations (value not shown), 3rd of four biocide concentrations
[4] = 1st of 3 copper concentrations (value not shown), 4th of four biocide concentrations
[5] = 2nd of 3 copper concentrations (value not shown), 1st of four biocide concentrations
[6] = 2nd of 3 copper concentrations (value not shown), 2nd of four biocide concentrations
[7] = 2nd of 3 copper concentrations (value not shown), 3rd of four biocide concentrations
[8] = 2nd of 3 copper concentrations (value not shown), 4th of four biocide concentrations
[9] = 3rd of 3 copper concentrations (value not shown), 1st of four biocide concentrations
[10] = 3rd of 3 copper concentrations (value not shown), 2nd of four biocide concentrations
[11] = 3rd of 3 copper concentrations (value not shown), 3rd of four biocide concentrations
[12] = 3rd of 3 copper concentrations (value not shown), 4th of four biocide concentrations
[13] = Gold section of Table 5, first of three gold concentrations (μM, value not given), biocide concentration 1 of 4
[14] = Gold section of Table 5, first of three gold concentrations (μM, value not given), biocide concentration 2 of 4
[15] = Gold section of Table 5, first of three gold concentrations (μM, value not given), biocide concentration 3 of 4
[16] = Gold section of Table 5, first of three gold concentrations (μM, value not given), biocide concentration 4 of 4
[17] = Gold section of Table 5, second of three gold concentrations (μM, value not given), biocide concentration 1 of 4
[18] = Gold section of Table 5, second of three gold concentrations (μM, value not given), biocide concentration 2 of 4
[19] = Gold section of Table 5, second of three gold concentrations (μM, value not given), biocide concentration 3 of 4
[20] = Gold section of Table 5, second of three gold concentrations (μM, value not given), biocide concentration 4 of 4
[21] = Gold section of Table 5, third of three gold concentrations (μM, value not given), biocide concentration 1 of 4
[22] = Gold section of Table 5, third of three gold concentrations (μM, value not given), biocide concentration 2 of 4
[23] = Gold section of Table 5, third of three gold concentrations (μM, value not given), biocide concentration 3 of 4
[24] = Silver 0.5 μM, biocide concentration 1 of 4
[25] = Silver 0.5 μM, biocide concentration 2 of 4
[26] = Silver 0.5 μM, biocide concentration 4 of 4
[27] = Silver 1.0 μM, biocide concentration 1 of 4
[28] = Silver 1.0 μM, biocide concentration 2 of 4
[29] = Silver 1.0 μM, biocide concentration 3 of 4
[30] = Silver 1.0 μM, biocide concentration 4 of 4
[31] = Silver 5.0 μM, biocide concentration 1 of 4
[32] = Silver 5.0 μM, biocide concentration 2 of 4
[33] = Silver 5.0 μM, biocide concentration 3 of 4
[34] = Silver 5.0 μM, biocide concentration 4 of 4
[35] = Silver 0.5 μM, 4th of four biocide concentrations, E. coli
[36] = Silver 1.0 μM, 4th of four biocide concentrations, E. coli
[37] = Silver 5.0 μM, 4th of four biocide concentrations, E. coli
[38] = Silver 0.5 μM, 3rd of four biocide concentrations, E. coli
[39] = Silver 1.0 μM, 3rd of four biocide concentrations, E. coli
[40] = Silver 5.0 μM, 3rd of four biocide concentrations, E. coli

For `CN(C)C(=O)/N=N/C(=O)N(C)C` [diamide], the “CDI (coefficient of drug interaction), copper mixed with biocide” value (“CDI … with biocide” for short) [1] was 1.02, the “CDI … with biocide” value [2] was 0.98 and the “CDI … with biocide” value [3] was 0.96. The “CDI … with biocide” value [4] was 0.99, the “CDI … with biocide” value [5] was 0.78 and the “CDI … with biocide” value [6] was 0.72. For the same molecule, the “CDI … with biocide” value [7] was “Tox”, the “CDI … with biocide” value [8] was “Tox” and the “CDI … with biocide” value [9] was 0.52. The “CDI … with biocide” value [10] was 0.51, the “CDI … with biocide” value [11] was 0.52 and the “CDI … with biocide” value [12] was 0.56. The “CDI (coefficient of drug interaction)” value [13] was 0.99, the “CDI (coefficient of drug interaction)” value [14] was 0.86 and the “CDI (coefficient of drug interaction)” value [15] was “Tox”. For the same molecule, the “CDI (coefficient of drug interaction)” value [16] was “Tox”, the “CDI (coefficient of drug interaction)” value [17] was 0.98 and the “CDI (coefficient of drug interaction)” value [18] was 0.89. For the same molecule, the “CDI (coefficient of drug interaction)” value [19] was “Tox”, the “CDI (coefficient of drug interaction)” value [20] was “Tox” and the “CDI (coefficient of drug interaction)” value [21] was 0.98. The “CDI (coefficient of drug interaction)” value [22] was 0.93, the “CDI (coefficient of drug interaction)” value [23] was “Tox” and the “CDI (coefficient of drug interaction)” value (Gold section of Table 5, third of three gold concentrations (μM, value not given), biocide concentration 4 of 4) was “Tox”. The CDI [24] was 1.19, the CDI [25] was 1.07 and the CDI (Silver 0.5 μM, biocide concentration 3 of 4) was “Tox”. For the same molecule, the CDI [26] was “Tox”, the CDI [27] was 1.01 and the CDI [28] was 0.90. For the same molecule, the CDI [29] was “Tox”, the CDI [30] was “Tox” and the CDI [31] was 0.97. The CDI [32] was 0.40, the CDI [33] was “Tox” and the CDI [34] was “Tox”.

`CCN(CC)C(=S)SSC(=S)N(CC)CC` [disulfiram] was tested, and the “CDI … with biocide” value [8] was “Tox”, the “CDI (coefficient of drug interaction)” value (Gold 5 μM, biocide concentration 3 of 4, E. coli) was “Tox” and the “CDI (coefficient of drug interaction)” value (Gold 5 μM, biocide concentration 4 of 4, E. coli) was “Tox”. The “CDI (coefficient of drug interaction)” value (Gold 25 μM, biocide concentration 3 of 4, E. coli) was “Tox”, the “CDI (coefficient of drug interaction)” value (Gold 25 μM, biocide concentration 4 of 4, E. coli) was “Tox” and the “CDI (coefficient of drug interaction), silver + biocide” value (from here on “CDI … silver + biocide”) [35] was “Tox”. The “CDI … silver + biocide” value [36] was “Tox”, the “CDI … silver + biocide” value [37] was “Tox” and the “CDI (coefficient of drug interaction)” value ([…], biocide concentration 3 of 4, E. coli) was “Tox”. For the same molecule, the “CDI (coefficient of drug interaction)” value ([…], biocide concentration 4 of 4, E. coli) was “Tox”.

In the case of `NNC(N)=O` [semicarbazide], the “CDI … with biocide” value [8] was “Tox”, the “CDI … silver + biocide” value [38] was “Tox” and the “CDI … silver + biocide” value [35] was “Tox”. For the same molecule, the “CDI … silver + biocide” value [39] was “Tox”, the “CDI … silver + biocide” value [36] was “Tox” and the “CDI … silver + biocide” value [40] was “Tox”. The “CDI … silver + biocide” value [37] was “Tox”.

`CCCCCCCCCCCC[N+](C)(C)CCCS(=O)(=O)O` [lauryl sulfobetaine] was tested, and the “CDI … with biocide” value [1] was 0.96, the “CDI … with biocide” value [2] was 1.18 and the “CDI … with biocide” value [3] was 0.80. For the same molecule, the “CDI … with biocide” value [4] was 0.21, the “CDI … with biocide” value [5] was 0.60 and the “CDI … with biocide” value [6] was 1.39. For the same molecule, the “CDI … with biocide” value [7] was 0.72, the “CDI … with biocide” value [8] was 0.48 and the “CDI … with biocide” value [9] was 0.48. The “CDI … with biocide” value [10] was 0.80, the “CDI … with biocide” value [11] was 0.34 and the “CDI … with biocide” value [12] was 0.07. The “CDI (coefficient of drug interaction)” value [13] was 0.86, the “CDI (coefficient of drug interaction)” value [14] was 1.26 and the “CDI (coefficient of drug interaction)” value [15] was 0.86. The “CDI (coefficient of drug interaction)” value [16] was 0.99, the “CDI (coefficient of drug interaction)” value [17] was 0.96 and the “CDI (coefficient of drug interaction)” value [18] was 0.87. The “CDI (coefficient of drug interaction)” value [19] was 1.00, the “CDI (coefficient of drug interaction)” value [20] was 1.09 and the “CDI (coefficient of drug interaction)” value [21] was 1.13. For the same molecule, the “CDI (coefficient of drug interaction)” value [22] was 1.04, the “CDI (coefficient of drug interaction)” value [23] was 0.96 and the “CDI … silver + biocide” value (Silver 0.5 μM, 1st of four biocide concentrations, E. coli) was 0.83. For the same molecule, the “CDI … silver + biocide” value (Silver 0.5 μM, 2nd of four biocide concentrations, E. coli) was 0.56, the “CDI … silver + biocide” value [38] was “Tox” and the “CDI … silver + biocide” value [35] was “Tox”. The “CDI … silver + biocide” value (Silver 1.0 μM, 1st of four biocide concentrations, E. coli) was 0.91, the “CDI … silver + biocide” value (Silver 1.0 μM, 2nd of four biocide concentrations, E. coli) was 0.79 and the “CDI … silver + biocide” value [39] was “Tox”. The “CDI … silver + biocide” value [36] was “Tox”, the “CDI … silver + biocide” value (Silver 5.0 μM, 1st of four biocide concentrations, E. coli) was 1.42 and the “CDI … silver + biocide” value (Silver 5.0 μM, 2nd of four biocide concentrations, E. coli) was 1.41. The “CDI … silver + biocide” value [40] was “Tox” and the “CDI … silver + biocide” value [37] was “Tox”.

With `CC1(C)S[C@@H]2[C@H](NC(=O)[C@H](NC(=O)N3CCNC3=O)c3ccccc3)C(=O)N2[C@H]1C(=O)O` [aziocillin] the “CDI (coefficient of drug interaction)” value (Copper (mM), 1st of 3 copper concentrations (head line not shown), biocide concentration 1 of 4, E. coli) was 0.97, the “CDI (coefficient of drug interaction)” value (Copper (mM), 1st of 3 copper concentrations (head line not shown), biocide concentration 2 of 4, E. coli) was 1.05 and the “CDI (coefficient of drug interaction)” value (Copper (mM), 1st of 3 copper concentrations (head line not shown), biocide concentration 3 of 4, E. coli) was 1.08. The “CDI (coefficient of drug interaction)” value (Copper (mM), 1st of 3 copper concentrations (head line not shown), biocide concentration 4 of 4, E. coli) was “Tox”, the “CDI (coefficient of drug interaction)” value (Copper (mM), 2nd of 3 copper concentrations (head line not shown), biocide concentration 1 of 4, E. coli) was 0.94 and the “CDI (coefficient of drug interaction)” value (Copper (mM), 2nd of 3 copper concentrations (head line not shown), biocide concentration 2 of 4, E. coli) was 0.90. For the same molecule, the “CDI (coefficient of drug interaction)” value (Copper (mM), 2nd of 3 copper concentrations (head line not shown), biocide concentration 3 of 4, E. coli) was 0.97, the “CDI (coefficient of drug interaction)” value (Copper (mM), 2nd of 3 copper concentrations (head line not shown), biocide concentration 4 of 4, E. coli) was “Tox” and the “CDI (coefficient of drug interaction)” value (Copper (mM), 3rd of 3 copper concentrations (head line not shown), biocide concentration 1 of 4, E. coli) was 0.78. The “CDI (coefficient of drug interaction)” value (Copper (mM), 3rd of 3 copper concentrations (head line not shown), biocide concentration 2 of 4, E. coli) was 0.70, the “CDI (coefficient of drug interaction)” value (Copper (mM), 3rd of 3 copper concentrations (head line not shown), biocide concentration 3 of 4, E. coli) was 0.61 and the “CDI (coefficient of drug interaction)” value (Copper (mM), 3rd of 3 copper concentrations (head line not shown), biocide concentration 4 of 4, E. coli) was “Tox”. For the same molecule, the “CDI (coefficient of drug interaction), gold + biocide” value (“CDI … gold + biocide” for short) (first of 3 gold concentrations, biocide concentration 1 of 4) was 0.92, the “CDI … gold + biocide” value (first of 3 gold concentrations, biocide concentration 2 of 4) was 1.01 and the “CDI … gold + biocide” value (first of 3 gold concentrations, biocide concentration 3 of 4) was 0.94. For the same molecule, the “CDI … gold + biocide” value (first of 3 gold concentrations, biocide concentration 4 of 4) was 0.64, the “CDI … gold + biocide” value (second of 3 gold concentrations, biocide concentration 1 of 4) was 1.05 and the “CDI … gold + biocide” value (second of 3 gold concentrations, biocide concentration 2 of 4) was 1.09. The “CDI … gold + biocide” value (second of 3 gold concentrations, biocide concentration 3 of 4) was 0.89, the “CDI … gold + biocide” value (second of 3 gold concentrations, biocide concentration 4 of 4) was 0.64 and the “CDI … gold + biocide” value (third of 3 gold concentrations, biocide concentration 1 of 4) was 0.94. The “CDI … gold + biocide” value (third of 3 gold concentrations, biocide concentration 2 of 4) was 0.93, the “CDI … gold + biocide” value (third of 3 gold concentrations, biocide concentration 3 of 4) was 0.93 and the “CDI … gold + biocide” value (third of 3 gold concentrations, biocide concentration 4 of 4) was 0.47. For the same molecule, the CDI [24] was 0.90, the CDI [25] was 1.07 and the CDI [26] was “Tox”. For the same molecule, the CDI [27] was 0.97, the CDI [28] was 0.90 and the CDI [29] was 1.14. The CDI [30] was “Tox”, the CDI [31] was 1.03 and the CDI [32] was 1.08. The CDI [33] was 0.70 and the CDI [34] was “Tox”.
